According to BindingDB's records for doi:10.1016/j.bmc.2015.10.001 (Seoul National University, 2015):

Molecular target: Transient receptor potential cation channel subfamily V member 1 (Homo sapiens, UniProt Q8NER1)
Assay: Antagonist activity at human TRPV1 heterologously expressed in CHO cells assessed as inhibition of capsaicin-induced activation by FLIPR assay

Sequence of Transient receptor potential cation channel subfamily V member 1 (Q8NER1 whole entry): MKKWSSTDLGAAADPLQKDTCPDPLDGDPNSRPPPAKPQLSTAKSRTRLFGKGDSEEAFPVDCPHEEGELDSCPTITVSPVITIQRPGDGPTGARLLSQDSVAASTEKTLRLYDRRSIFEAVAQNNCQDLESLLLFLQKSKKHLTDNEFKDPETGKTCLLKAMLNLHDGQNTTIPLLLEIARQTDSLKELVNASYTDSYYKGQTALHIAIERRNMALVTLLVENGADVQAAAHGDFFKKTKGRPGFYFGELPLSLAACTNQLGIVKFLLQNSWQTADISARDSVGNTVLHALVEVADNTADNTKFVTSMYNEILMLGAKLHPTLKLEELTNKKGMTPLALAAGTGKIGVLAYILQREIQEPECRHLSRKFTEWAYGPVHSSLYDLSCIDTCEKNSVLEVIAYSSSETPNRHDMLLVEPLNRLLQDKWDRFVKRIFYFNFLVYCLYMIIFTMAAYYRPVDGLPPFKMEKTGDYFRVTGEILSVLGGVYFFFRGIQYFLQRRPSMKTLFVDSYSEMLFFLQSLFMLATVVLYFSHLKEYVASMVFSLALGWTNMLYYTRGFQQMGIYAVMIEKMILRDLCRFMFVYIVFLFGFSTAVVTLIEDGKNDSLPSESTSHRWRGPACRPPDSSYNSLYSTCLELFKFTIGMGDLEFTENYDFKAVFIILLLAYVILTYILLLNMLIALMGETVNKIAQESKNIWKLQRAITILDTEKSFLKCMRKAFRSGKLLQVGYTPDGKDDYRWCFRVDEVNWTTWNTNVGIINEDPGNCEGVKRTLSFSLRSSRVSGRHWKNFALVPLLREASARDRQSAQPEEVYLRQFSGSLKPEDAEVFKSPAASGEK

Ki: 0.7 nM
SMILES: CCCCCOc1cc(C(F)(F)F)ccc1CNC(=O)C(C)c1ccc(NS(C)(=O)=O)c(F)c1 (stereo unspecified)
